Experimental data published in patent US20080261994A1, “CYCLOPROPANE COMPOUNDS AND PHARMACEUTICAL USE THEREOF” (Japan Tobacco Inc., priority 2003, published 2008).
Read-outs that look alike come from different tables or passages of the source.

What was measured:
Format in all cases: biochemical
[1] = biological target: T1, Recombinant Human MMP-13 (Homo sapiens, UniProt P45452); assay: MMP-13 inhibitory activity (MMP-13 specific fluorescent substrate with quencher)
T1 construct: purchased R&D systems 511-MM
How it was run: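 Recombinant human MMP-13 with test compound, reaction started with quenched fluorogenic peptide 7-MCA-Pro-CHA-Gly-NVal-His-Ala-DPA in Tris-HCl buffer, 1 h at 25 °C, stopped with acetic acid. Fluorescence at Ex 325/Em 405 nm; % inhibition versus enzyme-free and inhibitor-free wells, reported as IC50 (μM).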

[2] = biological target: T2, aggrecanase-1 (Homo sapiens, UniProt O75173); assay: Aggrecanase-1 inhibitory action (Particle Assay, GAG release from aggrecan-containing polyacrylamide particles)
T2 sequence (O75173 213-837): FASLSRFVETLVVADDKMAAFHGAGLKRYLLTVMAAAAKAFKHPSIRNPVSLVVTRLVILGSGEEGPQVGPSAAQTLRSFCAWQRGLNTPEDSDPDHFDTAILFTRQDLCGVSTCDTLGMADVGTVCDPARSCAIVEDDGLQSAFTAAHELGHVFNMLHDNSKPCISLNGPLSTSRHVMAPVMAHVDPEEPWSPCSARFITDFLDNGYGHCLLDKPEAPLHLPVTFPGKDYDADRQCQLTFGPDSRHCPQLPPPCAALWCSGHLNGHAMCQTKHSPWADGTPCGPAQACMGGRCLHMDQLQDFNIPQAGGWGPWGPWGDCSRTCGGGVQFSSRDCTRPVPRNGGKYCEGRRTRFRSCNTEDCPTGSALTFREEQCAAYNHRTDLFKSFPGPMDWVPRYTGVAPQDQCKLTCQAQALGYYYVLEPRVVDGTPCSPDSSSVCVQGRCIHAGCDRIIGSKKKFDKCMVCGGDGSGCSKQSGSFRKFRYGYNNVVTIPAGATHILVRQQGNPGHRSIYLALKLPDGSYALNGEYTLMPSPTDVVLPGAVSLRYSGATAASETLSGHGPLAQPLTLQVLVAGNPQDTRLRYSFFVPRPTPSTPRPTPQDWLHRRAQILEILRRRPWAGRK
How it was run: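 Enzyme and compound incubated with aggrecan-containing polyacrylamide particles in Tris-HCl buffer at 37° C for 15 h. Released GAG in supernatant measured with 1,9-dimethylmethylene blue at 595 nm against chondroitin sulfate standard; % inhibition from enzyme-free and inhibitor-free wells, reported as TC50 (μM).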

[3] = biological target: T3, MMP-1 (Homo sapiens, UniProt P03956); assay: MMP-1 inhibitory action (Type I collagen Activity Measurement kit, FITC-labeled collagen type I)
T3 sequence (P03956 100-469): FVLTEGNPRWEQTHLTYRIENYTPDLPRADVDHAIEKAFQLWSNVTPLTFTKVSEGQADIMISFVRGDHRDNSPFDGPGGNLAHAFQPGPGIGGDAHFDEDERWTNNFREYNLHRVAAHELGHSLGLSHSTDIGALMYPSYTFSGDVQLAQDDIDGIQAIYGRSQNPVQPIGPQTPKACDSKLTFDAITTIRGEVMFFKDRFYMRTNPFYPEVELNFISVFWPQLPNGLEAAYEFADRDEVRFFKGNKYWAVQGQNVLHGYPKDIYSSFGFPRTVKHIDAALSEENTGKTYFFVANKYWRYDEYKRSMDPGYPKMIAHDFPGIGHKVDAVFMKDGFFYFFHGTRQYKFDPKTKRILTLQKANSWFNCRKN

[4] = Recombinant Human MMP-13, fluorescent substrate, 25° C. for 1 h, read-out: IC50 MMP13 (Experimental Example 3)
[5] = aggrecanase-1 inhibitory action, read-out: IC50 AG1 (Experimental Example 1)
[6] = MMP-1 inhibitory action, FITC-labeled collagen type I, 37° C. for 3 hr, read-out: IC50 MMP1 (Experimental Example 2)
[7] = Experimental Example 3, read-out: IC50 MMP13
[8] = Experimental Example 1, read-out: IC50 AG1
[9] = Experimental Example 2, read-out: IC50 MMP1

IC50 [1, 4] [nM]	IC50 [2, 5] [nM]	IC50 [3, 6] [nM]	IC50 [1, 7] [nM]	IC50 [2, 8] [nM]	IC50 [3, 9] [nM]	Compound
< 1000	< 100	≥ 10000	–	–	–	CC(C)(O)COc1ccccc1C1CC1(NS(=O)(=O)c1ccc(-c2ccc(Cl)cc2)s1)C(=O)O (stereo not drawn) [Example 2-25]
–	–	–	< 100	< 100	< 1000	CC1[C@H](c2ccccc2)[C@]1(NS(=O)(=O)c1ccc(-c2ccc(Cl)cn2)s1)C(=O)O (stereo partly drawn) [Example 2-366]
–	–	–	≥ 10000	≥ 1000	≥ 10000	Cc1nnc(N2CCN(S(=O)(=O)N[C@@]3(C(=O)O)C(C)[C@@H]3c3ccccc3)CC2)s1 (stereo partly drawn) [Example 2-465]
–	–	–	< 1000	< 1000	≥ 1000	C[C@]1(c2ccccc2)C[C@@]1(NS(=O)(=O)c1ccc(-c2ccc(F)cn2)s1)C(=O)O [Example 2-416]
< 100	< 100	≥ 1000	–	–	–	O=C(O)[C@]1(NS(=O)(=O)c2ccc(-c3ccc(Cl)cn3)s2)C[C@@H]1c1ccccc1 [Example 1-131]
–	–	–	< 1000	≥ 1000	≥ 1000	CC(C)Nc1ccc2c(c1)CN(S(=O)(=O)N[C@@]1(C(=O)O)C(C)[C@@H]1c1ccccc1)C2 (stereo partly drawn) [Example 2-552]
–	–	–	< 100	< 1000	≥ 1000	O=C(O)C1(NS(=O)(=O)c2ccc(-c3cc(C(F)(F)F)on3)s2)CC1c1cccc(CO)c1 (stereo not drawn) [Example 2-283]
≥ 10000	≥ 10000	≥ 10000	–	–	–	O=C(NC1CC1)c1ccc(S(=O)(=O)NC2(C(=O)O)CC2c2ccccc2)s1 (stereo not drawn) [Example 2-105]
–	–	–	≥ 10000	≥ 1000	≥ 10000	C[C@]1(c2ccccc2)C[C@@]1(NS(=O)(=O)c1ccc(-c2cccc(C(=O)O)c2)s1)C(=O)O [Example 2-479]
≥ 10000	≥ 10000	≥ 10000	–	–	–	Cn1nc(C(F)(F)F)cc1-c1ccc(S(=O)(=O)NC2(C(=O)O)CC2c2ccccc2)s1 (stereo not drawn) [Example 2-14]
≥ 1000	≥ 1000	≥ 10000	–	–	–	C=CC1CC1(NS(=O)(=O)c1ccc(-c2ccc(Cl)cc2)s1)C(=O)O (stereo not drawn) [Example 2-46]
< 100	< 100	< 1000	–	–	–	C[C@]1(c2ccccc2)C[C@@]1(NS(=O)(=O)c1ccc(-c2ccc(Cl)c(N)c2)s1)C(=O)O [Example 2-12, (1S,2R)-1-[5-(3-amino-4-chloro-phenyl)-thiophene-2-sulfonylamino]-2-methyl-2-phenyl-cyclopropanecarboxylic acid]
–	–	–	≥ 10000	≥ 1000	≥ 10000	C[C@]1(c2ccccc2)C[C@@]1(NS(=O)(=O)c1ccc(N2CCC(F)(F)C2)s1)C(=O)O [Example 2-467]
–	–	–	≥ 1000	≥ 1000	≥ 1000	C[C@]1(c2ccccc2)C[C@@]1(NS(=O)(=O)c1ccc(-c2cccnc2)s1)C(=O)O [Example 2-527]
< 100	< 1000	≥ 1000	–	–	–	O=C(O)C1(NS(=O)(=O)c2ccc(-c3ccc(Cl)cc3)cc2)CC1c1cccc(OCCn2ccnc2)c1 (stereo not drawn) [Example 1-83]
< 1000	< 1000	≥ 10000	–	–	–	CN1CCN(Cc2cccc(C3CC3(NS(=O)(=O)c3ccc(-c4ccc(Cl)cc4)s3)C(=O)O)c2)CC1 (stereo not drawn) [Example 1-103]
–	–	–	≥ 1000	≥ 1000	≥ 10000	CC1[C@H](c2ccccc2)[C@]1(NS(=O)(=O)c1ccc(-c2cc(C(F)(F)F)on2)o1)C(=O)O (stereo partly drawn) [Example 2-372]
–	–	–	< 1000	< 1000	≥ 10000	O=C(NCC1(c2ccccc2)CC1(NS(=O)(=O)c1ccc(-c2ccc(Cl)cc2)s1)C(=O)O)C1CCCCC1 (stereo not drawn) [Example 2-380]
–	–	–	≥ 1000	≥ 1000	≥ 10000	COCCN(C)CC1(c2ccccc2)CC1(NS(=O)(=O)c1ccc(-c2cc(C(F)(F)F)on2)s1)C(=O)O (stereo not drawn) [Example 2-336]
